Values joined by “and” are separate entries in the source; they are usually repeats but may differ in a detail not shown here. Equal values may be shown once. Read-outs that look alike come from different tables or passages of the source.
What was measured:
mouse TLR7 = molecular target: T1, mouse TLR7 (Mus musculus, UniProt P58681); test: Inhibition of TLR7 activation in mouse TLR7-expressing NF-κB-GFP reporter Ba/F3 cells; type: cell-based
T1 construct: expressed in transfected cells; host or cells: Ba/F3 cells (provided by Prof. Kensuke Miyake, University of Tokyo)
T1 sequence (P58681 27-1050): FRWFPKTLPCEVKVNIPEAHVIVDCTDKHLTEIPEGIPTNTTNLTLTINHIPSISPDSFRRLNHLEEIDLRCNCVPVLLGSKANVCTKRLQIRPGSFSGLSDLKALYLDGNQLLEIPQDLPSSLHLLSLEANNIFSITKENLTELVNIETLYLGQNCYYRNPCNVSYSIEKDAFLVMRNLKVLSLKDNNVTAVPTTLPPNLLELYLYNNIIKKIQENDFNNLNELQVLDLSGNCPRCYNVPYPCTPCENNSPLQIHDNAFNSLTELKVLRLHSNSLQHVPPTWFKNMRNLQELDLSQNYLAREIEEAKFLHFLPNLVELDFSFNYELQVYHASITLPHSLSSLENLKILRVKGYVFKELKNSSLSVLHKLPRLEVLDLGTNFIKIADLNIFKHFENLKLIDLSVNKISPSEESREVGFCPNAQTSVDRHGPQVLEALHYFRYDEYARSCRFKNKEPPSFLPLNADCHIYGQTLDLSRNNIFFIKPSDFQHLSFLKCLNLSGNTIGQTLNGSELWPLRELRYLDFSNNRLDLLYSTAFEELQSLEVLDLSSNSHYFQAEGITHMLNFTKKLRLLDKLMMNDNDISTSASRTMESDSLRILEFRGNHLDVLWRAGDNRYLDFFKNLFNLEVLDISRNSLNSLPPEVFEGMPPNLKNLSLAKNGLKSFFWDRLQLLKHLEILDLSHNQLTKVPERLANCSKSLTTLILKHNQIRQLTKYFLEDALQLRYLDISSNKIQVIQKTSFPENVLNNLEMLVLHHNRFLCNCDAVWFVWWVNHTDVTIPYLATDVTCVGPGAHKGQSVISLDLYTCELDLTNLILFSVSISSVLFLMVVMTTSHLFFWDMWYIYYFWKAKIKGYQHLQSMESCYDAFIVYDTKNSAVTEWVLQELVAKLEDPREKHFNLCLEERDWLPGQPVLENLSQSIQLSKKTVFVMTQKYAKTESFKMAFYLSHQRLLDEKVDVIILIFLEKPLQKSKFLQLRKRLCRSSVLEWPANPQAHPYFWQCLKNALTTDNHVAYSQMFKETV
Source text: Mouse TLR7-expressing reporter cells (Ba/F3 cells) were used to evaluate inhibition of TLR7 activation in each derivative and CB-7. These cells were provided by Professor Kensuke Miyake (Department of Infection Genetics, Institute of Medical Science, University of Tokyo). These cells have been transfected with a reporter gene that connects GFP gene downstream of the promoter region of NF-κB. Therefore, the expression of GFP is enhanced by the addition of a ligand for TLR7 expressed by the cells. The fluorescence intensity of GFP was attenuated by the addition of each derivative, and the inhibition of TLR7 activation by each derivative was evaluated as an indicator.
Loxoribine (Alexis Biochemicals) was used as the ligand for mouse TLR7. Gardiquimod (Invivogen) was used as the ligand for human TLR7.
Ba/F3 cells cultured in RPMI 1640 medium containing 10% (v/v) fetal calf serum (FCS), 50 U/mL penicillin, 50 μg/mL streptomycin, 2 mM L-glutamine, […] 2-mercaptoethanol, 1 ng/mL interleukin-3 were aliquoted into 96-well plates so that the number of cells per well was 1.0×10^5 cells/100 μL. 50 μL of each derivative or CB-7, prepared to final concentrations of 1, 5, 10, 25, 50, and 100 µM, was added to each well. 96-well plates were incubated at 37° C. for 30 minutes in the presence of 5% CO2. Next, 250 μg/mL Roxoribin was added to each well and incubated for 18 hours. At the end of incubation, cells were washed with PBS (FACS buffer) containing 2.5% (v/v) FCS and suspended in 200 μL of FACS buffer containing 25 μg/mL […] for each cell. GFP fluorescence intensities of the cells were analyzed by flow cytometry. Flow cytometry measurement was performed on a FACSCanto™ II (Becton Dickinson) and data were analyzed with FlowJo software (Tree Star). The MFI (%) upon stimulation with roxoribin in the presence of […] derivatives or CB-7 was calculated using the MFI upon stimulation with roxoribin alone as 100%, and then IC50 (chemical compound concentration that inhibits activity by 50%) was calculated by logistic regression analysis.
The evaluation of the TLR7 activation inhibition by B2-24-4-5A·HCOOH was performed by the method described in Example 2. CB-7 and B2-24-4·HCl were used as controls.

[1] = system: Cytochrome P450 (CYP), mouse liver microsomes; test: Metabolic stability (CYP) using mouse liver microsomes, HPLC; type: in vitro ADME; conditions: for Area (%) of peak: LC-UV (220 nm)
Description: For CB-7, B2-24, and B2-5A, 10 mg/mL DMSO solution was used. Each chemical compound was diluted with acetonitrile to 0.1 mg/mL, which was used as the analytical standard. Mouse liver microsomal fractions were rapidly thawed in a warm bath at 37° C. and kept on ice. Reaction buffer containing CYP cofactor was prepared on ice and mixed with the microsomal fractions. The reaction solution was preincubated at 37° C. for 5 minutes, and then the test substance solution was added and mixed well by pipetting. The volume of the reaction solution was 200 μL and the final concentration of the test substance was 0.1 mg/mL. The reaction solution was incubated at 37° C. for 30 minutes or 2 hours, and the reaction was stopped by adding 3 times the volume of acetonitrile and vortexing. After the reaction was stopped, the samples were centrifuged, and each supernatant was separated and dried in an evaporator. 50 μL of 50% acetonitrile solution was added to each solidified sample, and each sample was re-dissolved by vortexing for 5 minutes. Each redissolved solution was centrifuged, and each supernatant was subjected to HPLC analysis using a HITACHI Lachrom ELITE (HITACHI) as a HPLC system and COSMOSIL 5C18-MS-II, 4.6 mmI.D.×150 mm (nacalai tesque Co.) as a column.
Metabolic stability analysis of CB-7 and B2-24-4-5A·HCOOH was performed by the method of Example 5.

[2] = Plasma concentration in normal mice after oral administration; type: in vivo, mice (C57BL/6N); conditions: C57BL/6N mice, 1 mg orally, LC/MS/MS
Description: Plasma concentrations of CB-7 or B2-24-4-5A·HCOOH were measured in normal mice (C57BL/6N, 11 weeks old, female) after oral administration. 1 mg of CB-7 or B2-24-4-5A·HCOOH was administered orally to mice C57BL/6N. After 0.5, 1, 2, 4, or 8 hours, blood was collected from mice C57BL/6N to prepare plasma. The concentration of CB-7 or B2-24-4-5A·HCOOH in the plasma was measured by LC/MS/MS.

C=C[C@]1(CO)CC[C@@H](C(=C)C)[C@H](c2ccc(OC)cc2)C1 [CB-7, reference compound]
IC50 (mouse TLR7; Example 2, Ba/F3 reporter cells, loxoribine stimulation 18 hours, GFP MFI, read-out: IC50 of CB-7 derivatives with modified Areas a and b): 3.12 µM
IC50 (mouse TLR7; Example 5, Table 5, method of Example 2, read-out: IC50): 7.66 µM
Number of peaks detected by HPLC ([1]; Example 3, 0.1 mg/mL, 37° C., 30 minutes or 2 hours): 7
Number of peaks detected by HPLC ([1]; Example 9): 9
Area (%) of peak ([1]; Example 9, 0 h): 100%
Area (%) of peak ([1]; Example 9, incubation 0.5 h): 65.3%
Area (%) of peak ([1]; Example 9, incubation 2.0 h): 41.6% and 41.2%
Plasma concentration after 8 hours [2]: could not be detected

Source: patent publication US12410157B2, “Compound useful as toll-like receptor 7 activation inhibitor” (TOYAMA PREFECTURAL UNIVERSITY, priority 2020, dated 2025)
